Laboratory results from US6855512B2, “Methods for identifying inhibitors of cytochrome P450RAI” (Allergan, Inc., priority 2000, dated 2005).

Tests used:
RARγ [1] = biological target: T1, RARγ (Homo sapiens, UniProt P13631); test: ligand binding assay, RARγ; conditions: Kd line of EC50/(EFFICACY)/Kd, K = thousand, read-out: RAR γ Kd
T1 sequence (P13631 1-454): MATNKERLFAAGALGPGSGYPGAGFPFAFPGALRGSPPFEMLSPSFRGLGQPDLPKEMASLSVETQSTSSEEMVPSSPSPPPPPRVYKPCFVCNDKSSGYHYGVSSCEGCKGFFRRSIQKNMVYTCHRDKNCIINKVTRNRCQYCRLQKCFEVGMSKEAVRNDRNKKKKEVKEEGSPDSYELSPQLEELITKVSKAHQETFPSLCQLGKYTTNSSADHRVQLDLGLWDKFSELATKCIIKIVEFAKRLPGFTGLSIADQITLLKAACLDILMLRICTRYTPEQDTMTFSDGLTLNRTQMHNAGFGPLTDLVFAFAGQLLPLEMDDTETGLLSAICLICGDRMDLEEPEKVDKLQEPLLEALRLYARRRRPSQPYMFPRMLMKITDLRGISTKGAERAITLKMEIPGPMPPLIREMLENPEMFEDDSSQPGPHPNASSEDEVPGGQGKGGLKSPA
From the text: (§1) Assays described below measure the ability of a compound to bind to, and/or activate various retinoid receptor subtypes. When in these assays a compound binds to a given receptor subtype and activates the transcription of a reporter gene through that subtype, then the compound is considered an agonist of that receptor subtype. […] In the below described assays the ability of the compounds to bind to RARα, RARβ, RARγ, RXRα, RXRβ and RXRγ receptors, and the ability or inability of the compounds to activate transcription of a reporter gene through these receptor subtypes can be tested.
(§2) The results obtained in this assay are expressed in EC50 numbers, as they are also in the chimeric receptor transactivation assay. The results of ligand binding assay are expressed in Kd numbers.

RARβ [2] = biological target: T2, RARβ (Homo sapiens, UniProt P10826); test: chimeric receptor transactivation assay, RARβ; assay type: cell-based; conditions: EC50 line of EC50/(EFFICACY)/Kd, read-out: RAR β EC50
T2 sequence (P10826 183-417 limits assumed): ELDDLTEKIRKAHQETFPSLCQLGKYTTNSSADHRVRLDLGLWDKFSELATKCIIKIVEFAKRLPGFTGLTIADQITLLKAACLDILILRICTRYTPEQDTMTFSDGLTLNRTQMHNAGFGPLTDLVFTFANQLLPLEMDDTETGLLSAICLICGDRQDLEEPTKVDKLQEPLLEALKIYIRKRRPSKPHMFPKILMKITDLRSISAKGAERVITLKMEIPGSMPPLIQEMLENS
From the text: as §1, §2

RARα [3] = biological target: T3, RARα (Homo sapiens, UniProt P10276); test: ligand binding assay, RARα; conditions: Kd line of EC50/(EFFICACY)/Kd, K = thousand, read-out: RAR α Kd
T3 sequence (P10276 1-462): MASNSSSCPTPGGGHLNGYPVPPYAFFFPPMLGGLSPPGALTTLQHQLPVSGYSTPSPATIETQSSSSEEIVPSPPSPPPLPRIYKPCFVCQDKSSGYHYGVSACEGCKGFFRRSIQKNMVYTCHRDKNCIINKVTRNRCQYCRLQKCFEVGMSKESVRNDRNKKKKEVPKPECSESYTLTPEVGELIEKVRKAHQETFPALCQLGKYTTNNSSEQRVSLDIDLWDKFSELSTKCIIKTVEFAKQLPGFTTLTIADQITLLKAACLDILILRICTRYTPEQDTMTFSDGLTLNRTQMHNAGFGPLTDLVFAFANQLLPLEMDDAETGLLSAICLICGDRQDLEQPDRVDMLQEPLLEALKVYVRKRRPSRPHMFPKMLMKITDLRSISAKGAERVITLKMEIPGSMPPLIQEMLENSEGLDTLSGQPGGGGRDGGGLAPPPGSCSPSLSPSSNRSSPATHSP
From the text: as §1, §2

RARα [4] = biological target: T4, RARα (Homo sapiens, UniProt P10276); test: chimeric receptor transactivation assay, RARα; assay type: cell-based; conditions: EC50 line of EC50/(EFFICACY)/Kd, read-out: RAR α EC50
T4 sequence (P10276 183-417 limits assumed): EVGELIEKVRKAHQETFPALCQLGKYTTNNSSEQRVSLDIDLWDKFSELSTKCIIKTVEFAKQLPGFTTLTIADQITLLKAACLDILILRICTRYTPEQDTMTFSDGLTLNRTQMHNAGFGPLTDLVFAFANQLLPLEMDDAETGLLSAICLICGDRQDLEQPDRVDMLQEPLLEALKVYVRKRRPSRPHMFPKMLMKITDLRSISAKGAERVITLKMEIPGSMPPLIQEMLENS
From the text: as §1, §2

RARβ [5] = biological target: T5, RARβ (Homo sapiens, UniProt P10826); test: ligand binding assay, RARβ; conditions: Kd line of EC50/(EFFICACY)/Kd, K = thousand, read-out: RAR β Kd
T5 sequence (P10826 1-455): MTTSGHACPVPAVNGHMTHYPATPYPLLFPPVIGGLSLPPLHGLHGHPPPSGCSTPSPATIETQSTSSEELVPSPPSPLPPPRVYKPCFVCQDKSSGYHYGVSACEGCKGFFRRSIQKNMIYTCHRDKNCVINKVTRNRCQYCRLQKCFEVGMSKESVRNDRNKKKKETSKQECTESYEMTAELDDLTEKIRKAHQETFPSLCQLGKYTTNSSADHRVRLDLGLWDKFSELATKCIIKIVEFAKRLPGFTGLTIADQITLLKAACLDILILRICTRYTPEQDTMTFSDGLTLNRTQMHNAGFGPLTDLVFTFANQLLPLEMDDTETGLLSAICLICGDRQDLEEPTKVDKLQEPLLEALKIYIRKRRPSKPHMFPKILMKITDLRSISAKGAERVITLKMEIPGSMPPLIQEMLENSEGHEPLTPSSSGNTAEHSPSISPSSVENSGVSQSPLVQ
From the text: as §1, §2

RARγ [6] = biological target: T6, RARγ (Homo sapiens, UniProt P13631); test: chimeric receptor transactivation assay, RARγ; assay type: cell-based; conditions: EC50 line of EC50/(EFFICACY)/Kd, read-out: RAR γ EC50
T6 sequence (P13631 185-454 limits assumed): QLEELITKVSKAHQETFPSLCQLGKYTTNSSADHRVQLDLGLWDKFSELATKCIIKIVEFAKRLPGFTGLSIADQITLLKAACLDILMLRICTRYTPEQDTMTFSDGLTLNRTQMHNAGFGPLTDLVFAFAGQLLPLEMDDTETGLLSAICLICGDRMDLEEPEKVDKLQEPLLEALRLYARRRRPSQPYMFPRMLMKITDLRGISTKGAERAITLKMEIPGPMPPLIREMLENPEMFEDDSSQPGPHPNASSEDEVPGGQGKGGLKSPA
From the text: as §1, §2

- Kd (RARγ [1]): 10000 nM
- EC50 (RARβ [2]): 18 nM
- Kd (RARα [3]): 10000 nM
- EC50 (RARα [4]): 89 nM
- Kd (RARβ [5]): 2890 nM
- EC50 (RARγ [6]): 15 nM
SMILES: CC1(C)CCSc2ccc(C#Cc3ccc(CCC(=O)O)cc3)cc21 [Compound 210]
